In US9227971B2, “Pyrazolo[1,5-a]pyrimidine compounds as mTOR inhibitors” (Merck Sharp & Dohme Corp., priority 2010, dated 2016):

System: phosphorylated AKT Ser473 (pAKT S473), mTORC2 activity, PC3 cells
Experiment: mTOR target engagement assay, immunofluorescent cell-based, pAKT S473 readout (mTORC2 activity)
Experimental: The target engagement of mTOR kinase inhibitors was evaluated using an immunofluorescent cell-based assay. In this assay, inhibition of mTORC1 activity was measured by the reduction in the level of phosphorylated 4E-BP1^[…] (p4E-BP1 Thr37/46), and inhibition of mTORC2 activity was measured by the reduction of phosphorylated AKT^Ser473 (pAKT S473).
PC3 cells (prostate tumor cell-line that contains a mutation in the tumor suppressor PTEN, that promotes the phosphorylation and activation of AKT and 4E-BP1) were used in the immunofluorescence assay. […] PC3 cells were then treated with 40 μl of the serially diluted test compounds (in 5% fetal bovine serum, F12 medium containing 0.25% DMSO) for ninety minutes at 37° C. The test compound solution was removed, and the plates were washed gently two times with 25 μl phosphate buffered saline (PBS). […] 5% Goat serum in PBS/0.3% Triton was used to block non-specific binding (60 minutes).
The primary antibodies targeting pAKT S473 and p4E-BP1 Thr37/46 were diluted into PBS/0.3% Triton and incubated with the cells overnight at 4° C. […] Plates were washed three times with PBS/0.1% Tween 20 before adding the secondary antibody at a 1:200 dilution.
Finally, the plates were washed three times with PBS/0.1% Tween 20 and the fluorescent intensity was read using an Analyst HT from Molecular Devices.

[1] = Homo sapiens, PC-3, Table 6-1, PC3 cells
[2] = Homo sapiens, PC-3, PC3 cells, compound treatment ninety minutes at 37° C.

`CCOC(=O)Nc1ccc(-c2cnn3c(N)c(C(C)=O)c([C@@H]4C[C@H]5CC[C@@H](C4)N5C(=O)CO)nc23)cn1` [Compound 8.77, ethyl 5-(6-acetyl-7-amino-5-((1R,3s,5S)-8-(2-hydroxyacetyl)-8-azabicyclo[3.2.1]octan-3-yl)pyrazolo[1,5-a]pyrimidin-3-yl)pyridin-2-ylcarbamate] showed an IC50 (Homo sapiens, PC-3, PC3 cells) of 100 to 1000 nM.

In the case of `COCCOCC(=O)N1[C@@H]2CC[C@H]1C[C@H](c1nc3c(-c4ccc(-c5ncc[nH]5)nc4)cnn3c(N)c1C(C)=O)C2` [Compound 6.13, 1-((1R,3s,5S)-3-(3-(6-(1H-imidazol-2-yl)pyridin-3-yl)-6-acetyl-7-aminopyrazolo[1,5-a]pyrimidin-5-yl)-8-azabicyclo[3.2.1]octan-8-yl)-2-(2-methoxyethoxy)ethanone], the IC50 [1] is reported as 1 to 100 nM.

`CC(=O)c1c([C@@H]2C[C@H]3CC[C@@H](C2)N3C(=O)[C@H](C)O)nc2c(-c3ccc(-c4ncc[nH]4)nc3)cnn2c1N` [Compound 6.8, (S)-1-((1R,3R,5S)-3-(3-(6-(1H-imidazol-2-yl)pyridin-3-yl)-6-acetyl-7-aminopyrazolo[1,5-a]pyrimidin-5-yl)-8-azabicyclo[3.2.1]octan-8-yl)-2-hydroxypropan-1-one] gave an IC50 [1] of 1 to 100 nM.

Compound `CC(=O)c1c([C@@H]2C[C@H]3CC[C@@H](C2)N3C(=O)[C@@H](C)O)nc2c(-c3ccc(-c4nccs4)nc3)cnn2c1N` [Compound 1.1.34, (R)-1-((1R,3S,5S)-3-(6-acetyl-7-amino-3-(6-(thiazol-2-yl)pyridin-3-yl)pyrazolo[1,5-a]pyrimidin-5-yl)-8-azabicyclo[3.2.1]octan-8-yl)-2-hydroxypropan-1-one] has an IC50 [2] of 100 to 1000 nM.

With `CS(=O)(=O)c1c([C@@H]2C[C@H]3CC[C@@H](C2)N3C(=O)CO)nc2c(-c3ccc(C4(O)CCC4)nc3)cnn2c1N` [Compound 7.28, 1-((1R,3s,5S)-3-(7-amino-3-(6-(1-hydroxycyclobutyl)pyridin-3-yl)-6-(methylsulfonyl)pyrazolo[1,5-a]pyrimidin-5-yl)-8-azabicyclo[3.2.1]octan-8-yl)-2-hydroxyethanone] the IC50 (Table 7-2, PC3 cells) was 100 to 1000 nM.

Compound `CC(=O)c1c([C@@H]2C[C@H]3CC[C@@H](C2)N3C(=O)[C@H](O)CO)nc2c(-c3ccc(-c4ccccc4)nc3)cnn2c1N` [Compound 1.1.3, (R)-1-((1R,3S,5S)-3-(6-acetyl-7-amino-3-(6-phenylpyridin-3-yl)pyrazolo[1,5-a]pyrimidin-5-yl)-8-azabicyclo[3.2.1]octan-8-yl)-2,3-dihydroxypropan-1-one] has an IC50 [2] of 100 to 1000 nM.

With `CC(=O)c1c([C@@H]2C[C@H]3CC[C@@H](C2)N3C(=O)c2nnc[nH]2)nc2c(-c3cnc(C(N)=O)nc3)cnn2c1N` [Compound 8.97, 5-(5-((1R,3s,5S)-8-(4H-1,2,4-triazole-3-carbonyl)-8-azabicyclo[3.2.1]octan-3-yl)-6-acetyl-7-aminopyrazolo[1,5-a]pyrimidin-3-yl)pyrimidine-2-carboxamide] the IC50 (Homo sapiens, PC-3, PC3 cells) was 1000 to 10000 nM.

`Nc1c(C2CC2)c([C@@H]2C[C@H]3CC[C@@H](C2)N3C(=O)CO)nc2c(-c3cnc(-c4ncc[nH]4)c(F)c3)cnn12` [Compound 6.29, 1-((1R,3s,5S)-3-(7-amino-6-cyclopropyl-3-(5-fluoro-6-(1H-imidazol-2-yl)pyridin-3-yl)pyrazolo[1,5-a]pyrimidin-5-yl)-8-azabicyclo[3.2.1]octan-8-yl)-2-hydroxyethanone] was tested, and the IC50 [1] was 100 to 1000 nM.

For `CC(=O)c1c([C@@H]2C[C@H]3CC[C@@H](C2)N3C(=O)CO)nc2c(-c3cnc(-c4ncc[nH]4)c(F)c3)cnn2c1N` [Compound 6.28, 1-((1R,3s,5S)-3-(6-acetyl-7-amino-3-(5-fluoro-6-(1H-imidazol-2-yl)pyridin-3-yl)pyrazolo[1,5-a]pyrimidin-5-yl)-8-azabicyclo[3.2.1]octan-8-yl)-2-hydroxyethanone], the IC50 [1] was 1 to 100 nM.
